Measurements: patent publication US20250057883A1, “CONTROLLABLE STIMULATION OF GENETICALLY ENGINEERED LYMPHOCYTES FOR THE TREATMENT OF CANCER” (THE TRUSTEES OF THE UNIVERSITY OF PENNSYLVANIA, priority 2021, published 2025)
“Also recorded” adds a separate entry of the source.

Legend:
[1] = tested on: T cells expressing TPOR; experiment: Stimulation of T cells expressing TPOR for 7 days, flow cytometry; assay type: cell-based, human; conditions: 0.1 μg/ml; for TPOR fraction after addition: enriched from 12.9%, FIG. 4 bottom panel
Experimental: (§1) FIG. 3: T cells transduced to express (i) the thrombopoietin receptor (TPOR) or (ii) the GCF receptor with a deletion at aa 715 (GCSFRd715) are active and can drive T cell proliferation via the non-canonical JAK2 pathway. T cells expressing GCSFRd715, TPOR, or the truncated NGFR as a control were stimulated for 7 days with IL-2/IL-7/IL-15 (all at 5 ng/ml; denoted as CK; positive control condition), 0.1 μg/ml recombinant thrombopoietin (TPO), 0.1 μg/ml TPO agonist eltrombopag (EP), or 0.1 μg/ml GCSF. Cell number (top) or percent transgenic cells (bottom) were quantified using flow cytometry at 7 days.
(§2) FIG. 4: Exemplary flow cytometry plots showing that exposure of transgenic cytokine receptor transduced cells to the cognate cytokine (i.e. GCSFRd715 to GCSF; TPOR to TPO or EP) leads to enrichment of CAR expressing cells at 7 days. Addition of GCSF enriched the GCSRFd715 transgenic cell fraction from 15.6% to 64.9% (top panel). Addition of TPO enriched the TPOR fraction from 12.9% to 82% and addition of EP enriched the TPOR fraction from 12.9% to 55.9% (bottom panel).
(§3) Healthy donor T cells were transduced to express (i) the thrombopoietin receptor (TPOR) or (ii) the GCF receptor with a deletion at aa 715 (GCSFRd715). T cells expressing GCSFRd715, TPOR, or the truncated NGFR as a control were stimulated for 7 days with IL-2/IL-7/IL-15 (all at 5 ng/ml; denoted as CK; positive control condition), 0.1 μg/ml recombinant thrombopoietin (TPO), 0.1 μg/ml TPO agonist eltrombopag (EP), or 0.1 μg/ml GCSF. Cell number (FIG. 3, top) or percent transgenic cells (FIG. 3, bottom) were quantified using flow cytometry at 7 days.

[2] = target: thrombopoietin receptor (TPOR) (UniProt P40238); experiment: cell-based or functional assay
[3] = target: T1, interleukin-6 receptor (IL-6R) (Homo sapiens, UniProt P08887); conditions: following CAR T-cell infusion; cited from earlier work
T1 construct: endogenous in cells; host or cells: subjects with cytokine release syndrome (in vivo)
T1 sequence (P08887 20-468): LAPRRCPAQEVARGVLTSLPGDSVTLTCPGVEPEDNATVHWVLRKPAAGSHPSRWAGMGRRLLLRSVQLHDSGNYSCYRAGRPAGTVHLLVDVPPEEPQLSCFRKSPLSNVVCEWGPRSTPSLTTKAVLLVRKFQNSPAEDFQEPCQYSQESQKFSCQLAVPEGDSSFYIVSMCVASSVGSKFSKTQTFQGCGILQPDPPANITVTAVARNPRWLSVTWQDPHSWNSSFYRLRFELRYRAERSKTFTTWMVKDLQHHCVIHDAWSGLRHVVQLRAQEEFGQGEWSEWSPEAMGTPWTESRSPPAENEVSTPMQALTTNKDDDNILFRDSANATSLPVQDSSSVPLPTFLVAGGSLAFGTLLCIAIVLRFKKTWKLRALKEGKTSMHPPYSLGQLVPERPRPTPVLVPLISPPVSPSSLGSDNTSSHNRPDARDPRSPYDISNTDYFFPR

[4] = tested on: Human T cells; experiment: T cell expansion after MV pseudotyped lentiviral transduction with mbIL15; assay type: cell-based
Excerpt: FIGS. 1A-1E: Transgenic IL15 and IL15Ra-IL15 expression to enhances T cell proliferation. Human T cells were transduced with a measles virus (MV) pseudotyped lentiviral vector redirected specifically against human CD4, encoding the NGFR reporter alone (“no IL15 construct”), soluble IL15 along with the reporter, or membrane-bound IL15 along with the reporter. Transduction is shown in FIG. 1B, where the transgene is detected using a co-expressed reporter molecule (tNGFR). Quantification of soluble IL15 is depicted in FIG. 1C. No additional cytokine or stimulation signals were provided to the cells. Tcells express transgenic IL15 and IL15Ra-IL15. […].
IL15 is a homeostatic cytokine that is required for the maintenance of CD8+ memory Tcells and NK cells, and promotes anti-tumor activity. IL15 signals through the IL15 receptor which is composed of a specific alpha chain (IL15Rα or IL15Ra) along with the shared IL2Rb and common gamma chain. Previous work has shown that a membrane bound version of IL15 (mbIL15) can be created by fusing IL15 directly to IL15Rα via a flexible linker that promotes IL15 signaling to the expressing cell (PMID: 27849617, US 2016/0158285 A1) (SEQ ID NO: 1,see Table 1). Herein, it was shown that incorporating mbIL15 in the lentiviral transfer genome increases CAR-T cell numbers 10-fold in vitro (FIGS. 1A-1D). […]

[5] = target: T2, TPO-R (Homo sapiens, UniProt P40238); conditions: CART cells transduced with TPO-R; cited from earlier work
T2 construct: host or cells: CAR T cells transduced with TPO-R by other groups
T2 sequence (P40238 26-635): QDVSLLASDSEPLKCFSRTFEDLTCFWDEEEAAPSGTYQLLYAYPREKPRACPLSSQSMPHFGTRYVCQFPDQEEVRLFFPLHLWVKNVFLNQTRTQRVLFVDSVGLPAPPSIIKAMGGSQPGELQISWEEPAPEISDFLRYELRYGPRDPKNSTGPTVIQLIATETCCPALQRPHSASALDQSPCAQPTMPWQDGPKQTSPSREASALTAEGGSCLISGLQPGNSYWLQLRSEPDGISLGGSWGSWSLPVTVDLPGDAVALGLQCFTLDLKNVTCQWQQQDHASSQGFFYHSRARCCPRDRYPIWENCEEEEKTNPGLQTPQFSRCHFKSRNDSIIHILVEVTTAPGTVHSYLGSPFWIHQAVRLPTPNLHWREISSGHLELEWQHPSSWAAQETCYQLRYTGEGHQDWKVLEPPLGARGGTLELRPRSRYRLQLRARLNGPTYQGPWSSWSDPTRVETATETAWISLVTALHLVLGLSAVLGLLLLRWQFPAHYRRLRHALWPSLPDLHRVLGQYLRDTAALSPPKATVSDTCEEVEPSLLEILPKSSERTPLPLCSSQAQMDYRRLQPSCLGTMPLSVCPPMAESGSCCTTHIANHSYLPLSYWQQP

[6] = tested on: T cells transduced with reporter+TPO-R; experiment: Expansion of TPO-R transduced T cells in vitro; assay type: cell-based, human; conditions: transduced using the MV pseudotyped lentivector; FIG. 2D
Excerpt: FIGS. 2A-2D: Transgenic TPO-R enables controllable T cell expansion. T cells were transduced with the reporter NGFR, or with reporter+the thrombopoietin receptor (TPOR) and stimulated with eltrombopag, a specific small molecule agonist of TPOR, in vitro. FIG. 2A: Cell number is shown to increase only in the presence of the TPOR agonist. […] FIG. 2C: All cells that express the reporter (tNGFR) also express the TPO receptor.
Recombinant erythropoietin (Epo) and G-CSF are commercially approved for the treatment for anemia of chronic kidney disease, and for chemotherapy-related neutropenia, respectively. Clinical development of a recombinant thrombopoietin (TPO) was superseded by two TPO receptor (TPO-R, also known as c-Mpl) peptidomimetic drugs that are now approved for the treatment of immune thrombocytopenic purpura (romiplostim, and eltrombopag). […] Results of the TPO-R experiments were recapitulated herein (FIGS. 2A-2D). T cells were transduced with the reporter NGFR, or with reporter+TPO-R and stimulated with eltrombopag, a specific small molecule agonist of TPOR, in vitro. […] In FIG. 2C, it is shown that there is a 1:1 expression of the reporter NGFR with the TPO receptor after 12 days of eltrombopag treatment.

[7] = tested on: T cells expressing the truncated NGFR; experiment: Stimulation of negative control T cells (truncated NGFR) for 7 days, flow cytometry; assay type: cell-based, human; conditions: 0.1 μg/ml, FIG. 3 top
Experimental: as §1, §3

[8] = tested on: STAT3 and STAT5; experiment: Phosphorylation of STAT3 and STAT5 in TPOR expressing T cells, flow cytometry; assay type: cell-based, human; conditions: 0.1 μg/ml, 24 hours
Experimental: (§4) FIG. 5: TPOR stimulation leads to activation of STAT3 and STAT5. Healthy donor Tcells expressing TPOR or untransduced control T cells were stimulated for 24 hours with 5 ng/ml IL-2/IL-7/IL-15 (CK), 0.1 μg/ml TPO or 0.1 μg/ml Eltrombopag (EP). Following stimulation cells were fixed and the phosphorylation of STAT3 and STAT5 quantified using flow cytometry.
as §4, with “TPOR” for “FIG. 5: TPOR”, “stimulation led” for “stimulation leads”, “and STAT5 (FIG. 5).” for “and STAT5.”, “donor T cells” for “donor Tcells”, “μg/ml TPO,” for “μg/ml TPO”

[9] = target: GCF receptor with a deletion at aa 715 (GCSFRd715) (UniProt Q99062); experiment: cell-based or functional assay
Chain of GCF receptor with a deletion at aa 715 (GCSFRd715) (Q99062 25-715 limits assumed, stated change not applied): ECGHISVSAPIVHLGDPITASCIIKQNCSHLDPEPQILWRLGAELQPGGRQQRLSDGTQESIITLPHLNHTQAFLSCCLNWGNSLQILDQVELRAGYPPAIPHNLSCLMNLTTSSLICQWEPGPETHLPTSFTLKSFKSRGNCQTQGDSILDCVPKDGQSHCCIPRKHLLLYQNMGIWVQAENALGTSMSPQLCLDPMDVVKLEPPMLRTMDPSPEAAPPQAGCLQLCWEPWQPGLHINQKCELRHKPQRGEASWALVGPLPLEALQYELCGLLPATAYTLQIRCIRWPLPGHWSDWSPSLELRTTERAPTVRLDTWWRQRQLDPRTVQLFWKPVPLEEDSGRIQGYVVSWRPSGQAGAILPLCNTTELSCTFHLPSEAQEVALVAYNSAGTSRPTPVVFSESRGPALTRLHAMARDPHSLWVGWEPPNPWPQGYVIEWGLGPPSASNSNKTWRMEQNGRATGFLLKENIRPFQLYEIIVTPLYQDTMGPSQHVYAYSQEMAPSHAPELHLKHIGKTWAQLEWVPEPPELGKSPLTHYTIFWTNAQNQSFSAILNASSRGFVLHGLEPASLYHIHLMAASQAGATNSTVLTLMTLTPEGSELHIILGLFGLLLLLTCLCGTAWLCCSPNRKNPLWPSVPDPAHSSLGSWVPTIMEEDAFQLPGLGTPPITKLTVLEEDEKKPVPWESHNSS

[10] = tested on: T cells expressing GCSFRd715; experiment: Stimulation of T cells expressing GCSFRd715 for 7 days, flow cytometry; assay type: cell-based, human
Experimental: as §1, §2, §3

## CC1=NN(c2ccc(C)c(C)c2)C(=O)/C1=N\Nc1cccc(-c2cccc(C(=O)O)c2)c1O [EP, eltrombopag, reference compound]
[1]
  TPOR fraction after addition: 55.9%

## recombinant thrombopoietin (TPO) (from UniProt P40225 22-353) (ligand)
[2]
  transgenic cell fraction after 7 days (flow cytometry): 82%

## tocilizumab: humanized monoclonal antibody against the interleukin-6 receptor (IL-6R)
[3]
  reversal of CRS: near-immediate reversal of CRS

## mbIL15: membrane bound version of IL15: IL15 fused directly to IL15Rα via a flexible linker (SEQ ID NO: 1)
[4]; in vitro, mbIL15 in the lentiviral transfer genome
  increase of CAR-T cell numbers: 10 fold
[4]; no additional cytokine or stimulation signals, FIG. 1D
  cell number (expansion): superior expansion

## thrombopoietin [TPO]
[5]
  proliferation and anti-tumor functions: superior proliferation and anti-tumor functions
[6]
  expansion of non-activated (resting) cells: led to expansion; also recorded: expand selectively
[7]
  response to stimulation (cell number): did not respond
[8]
  phosphorylation of STAT3 and STAT5: leads to STAT5 and STAT3 phosphorylation; also recorded: lead to the expected STAT5 and STAT3 phosphorylation
[1]
  TPOR fraction after addition: 82%
[1]; TPOR cells, FIG. 3 top
  response to stimulation (cell number): responded

## Granulocyte Colony Stimulating Factor (G-CSF) (from UniProt P09919 31-204) (ligand)
[9]
  transgenic cell fraction after 7 days (flow cytometry): 64.9%

B1: GCSF: Granulocyte Colony Stimulating Factor, cognate cytokine of GCSFRd715 (protein)
chain: TPLGPASSLPQSFLLKCLEQVRKIQGDGAALQEKLCATYKLCHPEELVLLGHSLGIPWAPLSSCPSQALQLAGCLSQLHSGLFLYQGLLQALEGISPELGPTLDTLQLDVADFATTIWQQMEELGMAPALQPTQGAMPAFASAFQRRAGGVLVASHLQSFLEVSYRVLRHLAQP
[7]
  response to stimulation (cell number): did not respond
[10]; 0.1 μg/ml, enriched from 15.6%, FIG. 4 top panel
  GCSFRd715 transgenic cell fraction after addition: 64.9%
[10]; GCSFRd715 cells, 0.1 μg/ml, FIG. 3 top
  response to stimulation (cell number): responded
[10]; GCSFRd715 cells, FIG. 3 bottom
  relative enrichment of transgenic cells (percent transgenic cells): Relative enrichment
